Measured values as given in patent US9701709B2 (REATA PHARMACEUTICALS, INC., priority 2012, dated 2017).

What was measured:
[1] = Metabolism in human liver microsomes; type: in vitro ADME; conditions: 60-min incubation, NADPH and UGT
[2] = tested on: human NQO1 ARE (Nrf2) in HuH-7 human hepatoma cells; experiment: NQO1-ARE luciferase reporter in HuH-7; type: cell-based; conditions: 15.6 nM, 18 h
Text: The first luciferase reporter tested was under the control of a single ARE derived from the promoter of the human NQO1 gene, which allows for quantitative assessment of the endogenous activity of the Nrf2 transcription factor in cultured mammalian cells. […] The NQO1-ARE-luciferase reporter plasmid was constructed by inserting the human NQO1-ARE ([NT] ID NO: 31) into the pLuc-MCS vector using HindIII/XhoI cloning sites (GenScript Corp., Piscataway, N.J.). […] Firefly and Renilla luciferase activity was assayed by Dual-Glo Luciferase Assay (cat # E2920, Promega), and the luminescence signal was measured on an L-Max II luminometer (Molecular Devices). Firefly luciferase activity was normalized to the Renilla activity, and fold induction over a vehicle control (DMSO) of normalized Firefly activity was calculated. […] Values represent the average of three independent experiments.

[3] = target: CYP2D6 (Homo sapiens, UniProt P10635); experiment: CYP450 inhibition in pooled human liver microsomes, CYP2D6; type: in vitro ADME; conditions: highest concentration tested (3 μM)
CYP2D6, sequence (P10635 whole entry): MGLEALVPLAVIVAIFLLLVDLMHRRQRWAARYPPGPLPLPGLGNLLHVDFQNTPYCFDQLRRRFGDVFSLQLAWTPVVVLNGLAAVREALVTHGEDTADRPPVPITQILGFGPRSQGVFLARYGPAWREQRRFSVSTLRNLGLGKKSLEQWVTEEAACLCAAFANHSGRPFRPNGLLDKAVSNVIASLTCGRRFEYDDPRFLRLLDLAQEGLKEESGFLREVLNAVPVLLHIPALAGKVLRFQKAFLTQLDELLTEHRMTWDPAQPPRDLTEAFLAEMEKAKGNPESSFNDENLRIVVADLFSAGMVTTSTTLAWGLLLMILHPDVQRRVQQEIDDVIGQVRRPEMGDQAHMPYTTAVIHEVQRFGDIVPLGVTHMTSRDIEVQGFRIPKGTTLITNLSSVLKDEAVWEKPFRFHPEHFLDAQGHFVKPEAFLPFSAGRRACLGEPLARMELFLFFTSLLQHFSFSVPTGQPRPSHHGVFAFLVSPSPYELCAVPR
Text: In addition, there was little or no evidence of metabolism-dependent inhibition of any of the enzymes tested.

[4] = tested on: LNCaP prostate cancer cell line; experiment: Cytotoxicity in combination with 5-fluorouracil in LNCaP; type: cell-based; conditions: RTA 408 0.125 to 0.5 μM
Text: This evidence supports the concept that RTA 408 could act synergistically with cancer therapeutic agents and may be used in some embodiments to provide greater efficacy in treating cancer patients.

[5] = Metabolism in monkey liver microsomes; type: in vitro ADME; conditions: 60-min incubation, NADPH and UGT
[6] = Plasma protein binding (ultracentrifugation), mouse
[7] = Plasma protein binding (ultracentrifugation), minipig
[8] = Plasma protein binding (ultracentrifugation), human
[9] = Topical pharmacokinetics in rats; type: in vivo, rat; conditions: 0.01% to 3% suspension in sesame oil
Text: The topical administration was formulated as a suspension in sesame oil.

[10] = tested on: Nrf2 target genes (NQO1, HMOX1, GCLM, TXNRD1) in HFL1 lung fibroblasts; experiment: Nrf2 target gene mRNA (qPCR) in HFL1; type: cell-based, human; conditions: HFL1, 18 h
Experimental: HFL1 cells were cultured in F-12K media supplemented with 10% fetal bovine serum and 1% penicillin-streptomycin. BEAS-2B cells were cultured in DMEM/F-12 media supplemented with 10% fetal bovine serum and 1% penicillin-streptomycin. […] Each well received the same amount of vehicle. Following treatment, media was removed and cells were harvested using RLT buffer (Qiagen). Lysates were homogenized using QIAShredder columns (Qiagen, Catalog #79654) and RNA was isolated using RNeasy Mini kits (Qiagen, Catalog #74104). For reverse transcription, RNA (1 μg) was combined with Oligo(dT)12-18 primer and H2O in a final volume of 23.25 μL. The mixture was heated to 70° C. for 10 min and then placed on ice. A master mix containing 8 μL 5×1st strand buffer, 2 μL 1 mg/ml BSA, 2 μL 20 mM DTT, 4 μL 5 mM dNTP mix, 0.25 μL RNaseOUTTM and 0.5 μL […]® II reverse transcriptase was added to the RNA mixture and incubated at 42° C. for 1 h. The reaction was inactivated by heating to 70° C. for 10 min. The reaction mixture was diluted 1:3 with H2O prior to use in qPCR. […] The relative abundance of each Nrf2 target gene was determined using the comparative CT method (ΔΔCT). […]

[11] = tested on: NQO1 activity; experiment: NQO1 activity induction in mouse liver, lung, and kidney after PO QD×3; type: in vivo; conditions: mice PO QD×3 25 mg/kg, 6 h after last dose
Experimental: FIG. 53—NQO1 activity induction in mouse liver, lung, and kidney by 63415. Mice were dosed PO QD×3 with 25 mg/kg. Tissues were collected 6 h after the last dose, and analysis of NQO1 activity was performed.

[12] = Plasma protein binding (ultracentrifugation), rat
[13] = Oral pharmacokinetics in rats; type: in vivo, rat; conditions: oral suspension, 10 to 100 mg/kg
Experimental: Measurements were performed on TQD and QToF mass spectrometers (Waters).
Following oral administration of a suspension formulation at doses of 10 to 100 mg/kg, maximal concentrations were observed within 1 to 2 h in mice, and within 1 to 24 h in rats and monkeys.

Q: For `CC1(C)CC[C@]2(NC(=O)C(C)(F)F)CC[C@]3(C)[C@H](C(=O)C=C4[C@@]5(C)C=C(C#N)C(=O)C(C)(C)[C@@H]5CC[C@]43C)[C@@H]2C1` [RTA 408, N-((4aS,6aR,6bS,8aR,12aS,14aR,14bS)-11-cyano-2,2,6a,6b,9,9,12a-heptamethyl-10,14-dioxo-1,2,3,4,4a,5,6,6a,6b,7,8,8a,9,10,12a,14,14a,14b-octadecahydropicen-4a-yl)-2,2-difluoropropanamide], which Parent molecule remaining [1] is on record?
A: The Parent molecule remaining was < 10%.

Q: And the “Induction of luciferase activity, NQO1-ARE reporter” value [2]?
A: The value was ~2 fold.

Q: And the inhibition at 3 µM [3]?
A: Its inhibition at 3 µM is < 50%.

Q: And the “Cytotoxicity of 5-fluorouracil in combination” value [4]?
A: The value was “statistically significant increase in cytotoxicity when combined with RTA 408”.

Q: What about the Parent molecule remaining [5] of the same molecule?
A: Its Parent molecule remaining is < 10%.

Q: And the fraction unbound [6]?
A: Its fraction unbound is 0.07.

Q: And the fraction unbound [7]?
A: Its fraction unbound is < 0.01.

Q: And the fraction unbound [8]?
A: The fraction unbound was 0.03.

Q: And the “Plasma concentrations after topical administration” value [9]?
A: Its value is “lower plasma concentrations relative to similar oral dosing”.

Q: What about the “Lowest concentration at which induction of Nrf2 target genes was evident” value [10] of the same molecule?
A: Its value is 15.6 nM.

Q: What about the “NQO1 activity induction, Kidney” value [11] of the same molecule?
A: The value was 10.9.

Q: And the “NQO1 activity induction, Liver” value [11]?
A: The value was 10.9.

Q: What about the “NQO1 activity induction, Lung” value [11] of the same molecule?
A: Its value is 1.75.

Q: And the fraction unbound [12]?
A: Its fraction unbound is 0.05.

Q: What about the “Time of maximal concentrations” value [13] of the same molecule?
A: Its value is 1 to 24 h.
